Assay [1] has as its target T1, E6 WT/E6AP (Human papillomavirus type 16, UniProt P03126). Description: biochemical. The format is binding. The note with it: WT 16E6; for inhibition at 10 µM: 10 μM compound; for inhibition at 100 µM: 100 μM compound.
For assay [2], the target named is T1, E6 WT/E6AP. Description: biochemical. It counts as binding. The note with it: for Emax: at 24 h, E6 WT, read-out: BLI maximal Inhibition (max %) E6 WT/E6AP.
Assay [3] deals with T2, E6C51S/E6AP (Human papillomavirus type 16, UniProt P03126, C58S). Description: E6/E6AP binding assay (amylose-bound MBP-16E6, E6AP-BAP activity), C51S 16E6. More on the design: species or system HPV-16. The note with it: for % Inhibition @ 10 μM E6C51S/E6AP: 10 μM compound; for % Inhibition @ 100 μM E6C51S/E6AP: 100 μM compound.
Another assay has as its target E6 Cys51Ser mutant (Human papillomavirus type 16, UniProt P03126, C58S). In words: Whole protein ESI mass spectrometry, adduct with E6 Cys51Ser mutant. It counts as binding, HPV-16. The settings on record: 100 μM for 16 hr at 4° C., FIG. 1A bottom.
The target in the next assay is wild-type E6 (Human papillomavirus type 16, UniProt P03126). The format is binding. The settings on record: 100 μM for 16 hr at 4° C., FIG. 1A top.
The target of assay [4] is T2, E6C51S/E6AP. Description: BLI binding assay, E6 C51S binding to captured E6AP. On the set-up: species or system HPV-16. The note with it: for BLI maximal Inhibition (max %) E6C51S/E6AP: at 24 h, E6 C51S. On the technique in general: Biolayer interferometry detects binding as a change in optical thickness at a sensor tip.
For assay [5], the target named is T1, E6 WT/E6AP. In words: biochemical. The format is binding. The note with it: for Emax: 24 h, read-out: FP maximal inhibition (max %) E6 WT/E6AP.
Assay [6] concerns the target T2, E6C51S/E6AP. Description: Fluorescence Polarization (FP) assay, MBP-E6 C51S with labeled peptide. It counts as binding, HPV-16. The note with it: at 24 h.
A further assay concerns RPE-1 cells. In words: Colony formation, crystal violet absorbance at 590 nm. It counts as cell-based. The settings on record: RPE-1 cells (no HPV), 14 days, normalized to DMSO, FIG. 6. The procedure:
FIG. 6 depicts colony formation capabilities of SiHa, CaSki or RPE-1 cells in the presence of the indicated concentrations of EIN-166. Fifty cells were seeded and incubated with DMSO or EIN-166. After 14 days, cells were fixed and stained with crystal violet. Stained colonies were dissolved and absorbance at 590 nm was measured. Treatments were normalized to DMSO. Data expressed as S.E.M and *P<0.05 (n=3).

Structures are written as SMILES. Where two headings read alike, the source gives them in different places.

T2 sequence (P03126 whole entry C58S, looked up): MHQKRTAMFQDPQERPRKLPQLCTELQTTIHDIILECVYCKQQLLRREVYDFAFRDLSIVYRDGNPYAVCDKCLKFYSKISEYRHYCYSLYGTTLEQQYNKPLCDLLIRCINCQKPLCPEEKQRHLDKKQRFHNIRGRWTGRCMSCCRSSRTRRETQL
T1 sequence (P03126 8-158): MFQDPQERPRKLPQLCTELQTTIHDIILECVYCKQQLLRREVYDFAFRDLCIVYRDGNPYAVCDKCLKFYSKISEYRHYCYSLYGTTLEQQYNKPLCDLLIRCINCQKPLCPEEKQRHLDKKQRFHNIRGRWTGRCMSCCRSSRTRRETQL
E6 Cys51Ser mutant, sequence (P03126 8-158 C58S): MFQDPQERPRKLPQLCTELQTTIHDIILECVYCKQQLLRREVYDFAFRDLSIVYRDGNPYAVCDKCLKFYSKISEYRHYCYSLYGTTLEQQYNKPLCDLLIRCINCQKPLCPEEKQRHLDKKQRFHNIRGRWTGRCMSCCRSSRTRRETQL
wild-type E6, sequence (P03126 8-158): as the sequence (P03126 8-158) above

One may read the inhibition as the change of the read-out against control, counted positive when it falls. Low values mean a response near the control, high ones a response far below the control. On E6 WT/E6AP [1], `Cc1ccccc1C1c2ccsc2CCN1CC(=O)N1CCCN(C(=O)CCl)CC1` (stereo not drawn) [EIN-116, 2-chloro-1-(4-(2-(4-(o-tolyl)-6,7-dihydrothieno[3,2-c]pyridin-5(4H)-yl)acetyl)-1,4-diazepan-1-yl)ethan-1-one] gave an inhibition at 10 µM of 29 ± 8% and an inhibition at 100 µM of 74 ± 3%. In addition, the “inhibition of E6 binding to E6AP (BLI), in words” value on E6 WT/E6AP [2] (E6 WT with increasing concentration of compound) is “inhibited E6 binding to E6AP in a concentration-dependent manner”. Moreover, the Emax on E6 WT/E6AP [2] stood at 100%. On E6C51S/E6AP [3], the “% Inhibition @ 10 μM E6C51S/E6AP” value is 5 ± 5% and the “% Inhibition @ 100 μM E6C51S/E6AP” value was 36 ± 11%. Also, at E6 Cys51Ser mutant, the “adduct formation with E6 Cys51Ser mutant” value was “not with E6 Cys51Ser mutant”. Further, the “adduct formation with wild-type E6” value at wild-type E6 is listed as “formed an adduct”. Moreover, the “loss of ability to inhibit mutant form E6-Cys51Ser (BLI), in words” value at E6C51S/E6AP [4] (FIG. 1B, E6-Cys51Ser) was “partly”. Further, at E6C51S/E6AP [4], the “BLI maximal Inhibition (max %) E6C51S/E6AP” value is on record as “(max 100%)”.

As to `C=CC(=O)N1CCN(c2nc(Cc3ccc(F)cc3)nc3sc4c(c23)CCCC4)CC1` [EIN-146, 1-(4-(2-(4-fluorobenzyl)-5,6,7,8-tetrahydrobenzo[4,5]thieno[2,3-d]pyrimidin-4-yl)piperazin-1-yl)prop-2-en-1-one], on E6 WT/E6AP [1], at 10 µM the inhibition was 16 ± 4% and the inhibition at 100 µM amounted to 30 ± 3%. The Emax on E6 WT/E6AP [2] turned out to be 100%. Further, at E6C51S/E6AP [3], the “% Inhibition @ 10 μM E6C51S/E6AP” value is 11 ± 7% and the “% Inhibition @ 100 μM E6C51S/E6AP” value was found to be 15 ± 8%. Also, the Emax on E6 WT/E6AP [5] came to 20%. Also, the “BLI maximal Inhibition (max %) E6C51S/E6AP” value at E6C51S/E6AP [4] is recorded as “(max 100%)”.

With `C=CC(=O)N1CCN(c2nc(CCc3cccc(OC)c3)nc3sccc23)CC1` [EIN-152, 1-(4-(2-(3-methoxyphenethyl)thieno[2,3-d]pyrimidin-4-yl)piperazin-1-yl)prop-2-en-1-one], the Emax was 100% at E6 WT/E6AP [2] and 98% at E6 WT/E6AP [5]. Besides, the “FP maximal inhibition (max %) E6C51S/E6AP” value at E6C51S/E6AP [6] is given as “(max 100%)”. Further, at E6C51S/E6AP [4], the “BLI maximal Inhibition (max %) E6C51S/E6AP” value was “(max 60%)”.

As for `C=CC(=O)N1CCN(c2nc(CCc3cccc(OC)c3)nc3ccccc23)CC1` [EIN-154, 1-(4-(2-(3-methoxyphenethyl)quinazolin-4-yl)piperazin-1-yl)prop-2-en-1-one], the results for the Emax at E6 WT/E6AP [2] and on E6 WT/E6AP [5] were 100% and 93%, respectively. Besides, at E6C51S/E6AP [4], the “BLI maximal Inhibition (max %) E6C51S/E6AP” value is recorded as “(max 75%)”.

Consider `COc1cccc(CCc2nc(N3CCN(C(=O)/C=C/CN(C)C)CC3)c3ccccc3n2)c1` [EIN-155, (E)-4-(dimethylamino)-1-(4-(2-(3-methoxyphenethyl)quinazolin-4-yl)piperazin-1-yl)but-2-en-1-one], for which the Emax on E6 WT/E6AP [2] and at E6 WT/E6AP [5] was 100% in each case. Further, on E6C51S/E6AP [4], the “BLI maximal Inhibition (max %) E6C51S/E6AP” value is “(max 100%)”.

For orientation: IC50 means the concentration that inhibits the measured activity by half. Consider `C=CC(=O)N1CCN(C(=O)CN2CCc3ccccc3C2c2ccccc2C)CC1` (stereo not drawn) [EIN-166, 1-(4-(2-(1-(o-tolyl)-3,4-dihydroisoquinolin-2(1H)-yl)acetyl)piperazin-1-yl)prop-2-en-1-one], for which the Emax at E6 WT/E6AP [5] turned out to be 100%. This compound also came in with an IC50 at E6 WT/E6AP [5] (FP IC50 at 24 h (μM) E6 WT/E6AP) of 73.4 ± 3.7 µM. Further, the colony formation capability result in the assay on RPE-1 cells is on record as “no significant changes”.

Source of the values: US12533339B2, “Small molecule antiviral drug treatment for human papillomavirus infections” (THE TRUSTEES OF INDIANA UNIVERSITY, priority 2020, dated 2026).
